Data on 31 molecules can be found in US7084176B2, “N-arylphenylacetamide derivatives and medicinal compositions containing the same” (Dainippon Pharmaceutical Co., Ltd., priority 2001, dated 2006).

Where a name gives a salt, the structure may show the parent alone. Read-outs that look alike come from different tables or passages of the source.

The test relates to male Std:ddY mice. Description: Phenyl-1,4-benzoquinone-induced writhing test. The following applies: for inhibition in vivo at 1 mg/kg / ED50 / inhibition in vivo at 10 mg/kg: Mus musculus; for inhibition in vivo at 1 mg/kg / inhibition in vivo at 10 mg/kg: 1 h, 60 minutes before PBQ, read-out: Inhibitory percentage (%); for inhibition in vivo at 1 mg/kg: subcutaneously administered at a dose of 1 mg/kg; for inhibition in vivo at 10 mg/kg: orally administered at a dose of 10 mg/kg. It counts as in vivo. The method, then:
Phenyl-1,4-benzoquinone-induced Writhing Test Referring to the method disclosed in Proc. Soc. exp. Biol. […] For oral administration, a test compound was suspended in 0.5% tragacanth solution. […] In the control group, a physiological saline solution containing 10% Tween 80 and 10% ethanol was administered in the case of subcutaneous administration, or a 0.5% tragacanth solution was administered in the case of oral administration. The number of writhing movements in the test compound-treated group was compared with that in the control group, and the writhing inhibitory percentage was calculated therefrom and considered as an analgesic effect. Writhing inhibitory percentage (%)=[(A−B)/A]×100 In the above equation, A means the number of writhing movements in the control group, and B means the number of writhing movements in the test compound-treated group. From the writhing inhibitory percentage of the test compound, ED50 (mg/kg) was calculated by logit analysis.
(In general: Writhing tests count abdominal constrictions after an irritant is injected.)

[1] abbreviates: sc, subcutaneous administration, writhing inhibition, logit analysis, read-out: ED50 (mg/kg sc).
The mark [2] stands for this setting: po, oral administration, writhing inhibition, logit analysis, read-out: ED50 (mg/kg po).

For `CS(=O)(=O)Nc1cc(CC(=O)Nc2cccc(C3CCCCC3)c2)ccc1O` [Ex. 34, N-(3-cyclohexylphenyl)-4-hydroxy-3-(methanesulfonylamino)phenylacetamide], the inhibition in vivo at 1 mg/kg (sc) stood at 41.5%. The ED50 under setting [1] was 0.48 mg/kg.

With `COc1cc(CC(=O)Nc2cccc(C#Cc3ccccc3C(F)(F)F)c2)ccc1O` [Ex. 37, 4-hydroxy-3-methoxy-N-[3-[2-(2-trifluoromethylphenyl)-ethynyl]phenyl]phenylacetamide], where the note is “sc”, the inhibition in vivo at 1 mg/kg is 59.6%. Also, the ED50 under setting [1] was 0.46 mg/kg.

Regarding `COc1cc(CC(=O)Nc2cccc(C3CCCCCC3)c2)ccc1OCCN` [Ex. 58, 4-(2-aminoethoxy)-N-(3-cycloheptylphenyl)-3-methoxyphenylacetamide hydrochloride], the inhibition in vivo at 1 mg/kg (sc) was determined as 54.4%.

As to `COc1cc(CC(=O)Nc2ccccc2Cc2ccccc2)ccc1O` [Ex. 97, N-(2-benzylphenyl)-4-hydroxy-3-methoxyphenylacetamide], under “sc”, the inhibition in vivo at 1 mg/kg stood at 54.9%.

As to `COc1cc(CC(=O)Nc2ccc3c(c2)C(=O)/C(=C/C(C)C)CC3)ccc1O` [Ex. 250], the inhibition in vivo at 1 mg/kg (sc) turned out to be 55%.

As to `COc1cc(CC(=O)Nc2ccc3c(c2)C(=O)C(CC(C)C)CC3)ccc1O` (stereo not shown) [Ex. 251, 4-hydroxy-3-methoxy-N-[1-oxo-2-(2-methylpropyl)-1,2,3,4-tetrahydronaphthalen-7-yl]phenylacetamide], the inhibition in vivo at 1 mg/kg (sc) was determined as 42.7%.

As for `COc1cc(CC(=O)Nc2cccc(C3CCCCC3)c2)ccc1O` [Example 1, N-(3-cyclohexylphenyl)-4-hydroxy-3-methoxyphenylacetamide], the inhibition in vivo at 1 mg/kg (sc) stood at 100%. Moreover, the “ED50 (mg/kg sc)” value (subcutaneous administration, writhing inhibition, logit analysis, listed as Ex. 1) came out at 0.014 mg/kg.

`COc1cc(CC(=O)Nc2cccc(C3C4CC5CC(C4)CC3C5)c2)ccc1O` (stereo not shown) [Example 3, N-[3-(adamantan-2-yl)phenyl]-4-hydroxy-3-methoxyphenylacetamide]: the inhibition in vivo at 1 mg/kg (sc) came to 91.3%. Besides, the ED50 under setting [1] came to 0.46 mg/kg.

In the case of `COc1cc(CC(=O)Nc2cccc(C3CCCC3)c2)ccc1O` [Example 4, N-(3-cyclopentylphenyl)-4-hydroxy-3-methoxyphenylacetamide], for the setting “sc”, the inhibition in vivo at 1 mg/kg came out at 79.6%.

On to `COc1cc(CC(=O)Nc2cccc(CC3CCCCC3)c2)ccc1O` [Example 5, N-[3-(cyclohexylmethyl)phenyl]-4-hydroxy-3-methoxyphenylacetamide], for which the inhibition in vivo at 1 mg/kg (sc) is 83.5%. Under setting [1], the ED50 worked out at 0.57 mg/kg.

For `COc1cc(CC(=O)Nc2cccc(C3=CCCCC3)c2)ccc1O` [Example 9, N-[3-(cyclohexen-1-yl)phenyl]-4-hydroxy-3-methoxyphenylacetamide], for the setting “sc”, the inhibition in vivo at 1 mg/kg was determined as 93.2%. Further, under setting [1], the ED50 turned out to be 0.23 mg/kg.

In the case of `COc1cc(CC(=O)Nc2cccc(C3CCCCC3c3ccccc3)c2)ccc1O` (stereo not shown) [Example 11, 4-hydroxy-3-methoxy-N-[3-(2-phenylcyclohexan-1-yl)phenyl]-phenylacetamide], the inhibition in vivo at 1 mg/kg (sc) amounted to 88.4%. Also, the ED50 under setting [1] worked out at 0.19 mg/kg.

Regarding `COc1cc(CC(=O)Nc2cccc(C3CCC(C)CC3)c2)ccc1O` (stereo not shown) [Example 13, 4-hydroxy-3-methoxy-N-[3-(4-methylcyclohexan-1-yl)phenyl]-phenylacetamide], the inhibition in vivo at 1 mg/kg (sc) was 100%. Moreover, under setting [1], the ED50 was at most 0.1 mg/kg. In addition, the “ED50 (mg/kg sc)” value (subcutaneous administration, writhing inhibition, logit analysis, listed as Ex. 13) came out at 0.097 mg/kg.

Consider `COc1cc(CC(=O)Nc2cccc(-c3ccccc3)c2)ccc1O` [Example 35, 4-hydroxy-3-methoxy-N-(3-phenylphenyl)phenylacetamide], for which the inhibition in vivo at 1 mg/kg (sc) is 89.4%. For the same molecule, under setting [1], the ED50 was 0.23 mg/kg.

Consider `COc1cc(CC(=O)Nc2cccc(C#Cc3ccccc3)c2)ccc1O` [Example 36, 4-hydroxy-3-methoxy-N-[3-(2-phenylethynyl)phenyl]phenylacetamide], for which, under “sc”, the inhibition in vivo at 1 mg/kg turned out to be 92.3%. For the same molecule, for the setting “subcutaneous administration, writhing inhibition, logit analysis, listed as Ex. 36”, the “ED50 (mg/kg sc)” value is listed as 0.046 mg/kg.

As for `COc1cc(CC(=O)Nc2cccc(CCc3ccccc3)c2)ccc1O` [Example 54, 4-hydroxy-3-methoxy-N-[3-(2-phenylethyl)phenyl]phenylacetamide], the inhibition in vivo at 1 mg/kg (sc) came to 90.4%. Besides, under setting [1], the ED50 was at most 0.1 mg/kg. Also, the “ED50 (mg/kg sc)” value (subcutaneous administration, writhing inhibition, logit analysis, listed as Ex. 54) turned out to be 0.081 mg/kg.

On to `COc1cc(CC(=O)Nc2cccc(/C=C\c3ccccc3)c2)ccc1O` [Example 56, 4-hydroxy-3-methoxy-N-[3-[(Z)-2-phenylvinyl]phenyl]phenylacetamide], for which, under “sc”, the inhibition in vivo at 1 mg/kg is 82.7%. In addition, the ED50 under setting [1] came to 0.11 mg/kg.

Consider `COc1cc(CC(=O)Nc2cccc(-c3ccccc3)c2)ccc1OCCN.Cl` [Example 63, 4-(2-aminoethoxy)-3-methoxy-N-(3-phenylphenyl)phenylacetamide], for which the inhibition in vivo at 10 mg/kg (po) came out at 100%. Besides, the inhibition in vivo at 1 mg/kg (sc) was determined as 100%. The “ED50 (mg/kg po)” value (oral administration, writhing inhibition, logit analysis, listed as Ex. 63) was 0.021 mg/kg. For the same molecule, the “ED50 (mg/kg sc)” value (subcutaneous administration, writhing inhibition, logit analysis, listed as Ex. 63) was determined as 0.016 mg/kg.

Consider `COc1cc(CC(=O)Nc2cccc(C3CCC(C(C)(C)C)CC3)c2)ccc1OC(C)=O` (stereo not shown) [Example 69, 4-acetoxy-N-[3-(4-tert-butylcyclohexan-1-yl)phenyl]-3-methoxyphenylacetamide], for which the inhibition in vivo at 10 mg/kg (po) came to 73.5%. Further, the ED50 by setting is: under setting [2], 2.81 mg/kg; under setting [1], at most 0.1 mg/kg. For the setting “sc”, the inhibition in vivo at 1 mg/kg is 99%. Also, under “subcutaneous administration, writhing inhibition, logit analysis, listed as Ex. 69”, the “ED50 (mg/kg sc)” value is 0.088 mg/kg.

For the molecule `COc1cc(CC(=O)Nc2cccc(C3CCC(C(C)(C)C)CC3)c2)ccc1OC(=O)c1ccccc1` (stereo not shown) [Example 70, 4-benzoyloxy-N-[3-(4-tert-butylcyclohexan-1-yl)phenyl]-3-methoxyphenylacetamide], the inhibition in vivo at 10 mg/kg (po) stood at 68.6%. Moreover, the ED50 reads like this: under setting [2], 9.7 mg/kg; under setting [1], 0.16 mg/kg. The inhibition in vivo at 1 mg/kg (sc) worked out at 93.2%.

Consider `COc1cc(CC(=O)Nc2cccc(C3CCC(C(C)(C)C)CC3)c2)ccc1OC(=O)C(C)(C)C` (stereo not shown) [Example 71, 4-tert-butylcarbonyloxy-N-[3-(4-tert-butylcyclohexan-1-yl)-phenyl]-3-methoxyphenylacetamide], for which the inhibition in vivo at 1 mg/kg (sc) is 94.2%. For the same molecule, the ED50 under setting [1] was determined as 0.16 mg/kg.

Regarding `COc1cc(CC(=O)Nc2cccc(C3=CCC(C(C)(C)C)CC3)c2)ccc1O` (stereo not shown) [Example 80, N-[3-(4-tert-butylcyclohexen-1-yl)phenyl]-4-hydroxy-3-methoxyphenylacetamide], for the setting “sc”, the inhibition in vivo at 1 mg/kg is 100%. Under setting [1], the ED50 is 0.37 mg/kg.

Turning to `COc1cc(CC(=O)Nc2cccc(C3CCC(C(F)(F)F)CC3)c2)ccc1O` (stereo not shown) [Example 81, 4-hydroxy-3-methoxy-N-[3-(4-trifluoromethylcyclohexan-1-yl)-phenyl]phenylacetamide], under “sc”, the inhibition in vivo at 1 mg/kg stood at 100%.

With `COc1cc(CC(=O)Nc2cccc(C3CCCC(C)C3)c2)ccc1O` (stereo not shown) [Example 83, 4-hydroxy-3-methoxy-N-[3-(3-methylcyclohexan-1-yl)phenyl]-phenylacetamide], where the note is “sc”, the inhibition in vivo at 1 mg/kg stood at 83%. Moreover, under setting [1], the ED50 was at most 0.1 mg/kg. Further, the “ED50 (mg/kg sc)” value (subcutaneous administration, writhing inhibition, logit analysis, listed as Ex. 83) was determined as 0.10 mg/kg.

As to `COc1cc(CC(=O)Nc2cccc(C3C(C)CCCC3C)c2)ccc1O` (stereo not shown) [Example 84, N-[3-(2,6-dimethylcyclohexan-1-yl)phenyl]-4-hydroxy-3-methoxyphenylacetamide], under “sc”, the inhibition in vivo at 1 mg/kg turned out to be 67.7%. Moreover, the ED50 under setting [1] came to 0.45 mg/kg.

Take `COc1cc(CC(=O)Nc2cccc(C3CC(C)CC(C)C3)c2)ccc1O` (stereo not shown) [Example 85, N-[3-(3,5-dimethylcyclohexan-1-yl)phenyl]-4-hydroxy-3-methoxyphenylacetamide]: the inhibition in vivo at 1 mg/kg (sc) is 76.9%. Moreover, the ED50 under setting [1] stood at 0.31 mg/kg.

Consider `COc1cc(CC(=O)Nc2cccc(N3CCC(C(C)(C)C)CC3)c2)ccc1O` [Example 86, N-[3-(4-tert-butylpiperidin-1-yl)phenyl]-4-hydroxy-3-methoxyphenylacetamide], for which the inhibition in vivo at 1 mg/kg (sc) worked out at 78.8%. Further, the ED50 under setting [1] is 0.33 mg/kg.

For the molecule `COc1cc(CC(=O)Nc2cccc(N3CCCC(C4CCCCC4)C3)c2)ccc1O` (stereo not shown) [Example 87, N-[3-(3-cyclohexylpiperidin-1-yl)phenyl]-4-hydroxy-3-methoxyphenylacetamide], for the setting “sc”, the inhibition in vivo at 1 mg/kg amounted to 95.8%. In addition, under setting [1], the ED50 is 0.4 mg/kg.

Consider `COc1cc(CC(=O)Nc2cccc(N3CCCC(C)C3)c2)ccc1O` (stereo not shown) [Example 88, N-[3-(3-methylpiperidin-1-yl)phenyl]-4-hydroxy-3-methoxyphenylacetamide], for which the inhibition in vivo at 1 mg/kg (sc) came to 76.6%.

With `COc1cc(CC(=O)Nc2cccc(-c3ccc(Cl)s3)c2)ccc1O` [Example 100, 4-hydroxy-3-methoxy-N-[3-(2-chlorothiophen-5-yl)phenyl]-phenylacetamide], the inhibition in vivo at 1 mg/kg (sc) was found to be 100%.

For `COc1cc(CC(=O)Nc2cccc(-c3cccn3C(=O)OC(C)(C)C)c2)ccc1O` [Example 101, 4-hydroxy-3-methoxy-N-[3-(1-tert-butoxycarbonylpyrrol-2-yl)-phenyl]phenylacetamide], the inhibition in vivo at 1 mg/kg (sc) was found to be 100%. Also, under setting [1], the ED50 came to 0.23 mg/kg.
